The data set is described as follows: In vitro metabolism test of fluorescein-labeled peptides in liver extract solution (HPLC). The data set is classed as in vitro ADME. The conditions noted are these: liver extract solution (supernatant of liver homogenate), mouse liver extract solution, 37° C., read-out: residual ratio of unchanged peptide in liver extract solution. How it is done: To compare the degree of improved stability observed in [C]K004K, an experiment system that uses a fluorescent pigment as a tracer instead of an isotope labeling for in vitro evaluation using a mouse liver homogenate was produced.
Add two parts of Hanks' solution to one part of mouse liver, and homogenize ↓ Centrifuge and collect supernatant ↓ Add five parts of Hanks' solution (liver extract solution) ↓ Add 5 μL of peptide to 245 μL of liver extract solution ↓
↓ Take 50 μL of sample 0, 5, 30, 60, and 120 minutes after incubation ↓ Add 200 μL, of 70% ethanol (pre-cooled at −30° C.) and then vortex ↓ Add 500 μL of chloroform (pre-cooled at −30° C.) and then vigorously vortex ↓ Centrifuge and collect supernatant ↓ Add an equivalent amount of DMF and then vortex ↓ Centrifuge and collect supernatant ↓ HPLC analysis using Co-sense
[C](Flu)-C004C: A peptide cyclized by adding C to both ends of the 004 sequence and forming a disulfide bond between them was labeled with fluorescein at its N-terminus. [C](Flu)-K004C: A peptide cyclized by adding K to the N terminus and C to the C terminus of the 004 sequence and forming a peptide bond between the N- and C-termini was labeled with fluorescein at its N terminus. [C](Flu)-K004K: A peptide cyclized by adding K to both ends of the 004 sequence and forming a peptide bond between the N- and C-termini was labeled with fluorescein at its N terminus. […]

Where a SMILES comes first, the peptide text is derived from it. The star is where a group is joined. 5FAM = O=C1OC2(c3ccc(O)cc3Oc3cc(O)ccc32)c2ccc(C(=O)*)cc21

`CC(C)C[C@@H]1NC(=O)[C@H](Cc2c[nH]cn2)NC(=O)[C@H](CCCNC(=N)N)NC(=O)[C@H](C(C)C)NC(=O)[C@H](C(C)C)NC(=O)[C@H](CCCCNC(=O)c2ccc3c(c2)C(=O)OC32c3ccc(O)cc3Oc3cc(O)ccc32)NC(=O)[C@H](CS)NC(=O)[C@H](CCC(N)=O)NC(=O)[C@H](CCC(N)=O)NC1=O` [[C](Flu)-K004C, reference compound] (cyclo(K(5FAM)VVRHLQQC)): the remaining at 5 min (five minutes) was found to be 40%.

With `CC(C)C[C@@H]1NC(=O)[C@H](Cc2c[nH]cn2)NC(=O)[C@H](CCCNC(=N)N)NC(=O)[C@H](C(C)C)NC(=O)[C@H](C(C)C)NC(=O)[C@H](CCCCNC(=O)c2ccc3c(c2)C(=O)OC32c3ccc(O)cc3Oc3cc(O)ccc32)NC(=O)[C@H](CCCCN)NC(=O)[C@H](CCC(N)=O)NC(=O)[C@H](CCC(N)=O)NC1=O` [[C](Flu)-K004K] (cyclo(K(5FAM)VVRHLQQK)), the remaining at 1 h (60-minute incubation) is approximately 50%.
